Experimental data published in patent US20070072954A1, “Novel tetraoxaspiroalkanes and methods of use with organosilicon monomers in polyerizable compositions” (Curators of the University of Missouri, priority 2005, published 2007).
Marks after values point to notes of the source that are not given here.

Assays:
[1] = Oxaspirocyclic ring opening via 13C-NMR; format: physicochemical; conditions: 20 min visible light irradiation with PI system
Experimental: NMR Studies: NMR spectra were acquired using a Bruker Advance Ultrashield FT-NMR spectrometer. A reaction mixture consisting of 6 (DEBTMSPOM-1,5,7,11-TOSU) and the PI system was heated to 55-60° C. to liquefy and then allowed to cool to room temperature. A 300 mg sample was transferred to an 8 mm I.D.×8 mm H cylindrical glass mold and irradiated for 20 min (3 mm; 500 mW/cm^2) using a 3M XL 2500 lamp. A small amount was transferred to an NMR tube, taken up in CDCl3 and the ^13C-NMR spectrum was acquired and compared to the pre-irradiation spectrum. The residual irradiated material was stored in the dark for 24 hr, resampled, and the NMR spectrum acquired and compared to the pre- and post-irradiation spectra.

[2] = Photopolymerization stress measurement (tensilometer); format: physicochemical
Experimental: In this example, the photopolymerization stress of the monomers of the present invention was investigated. Stress generated during photopolymerization was measured (n=3) using an electromagnetic mechanical testing machine (Enduratec Model 3200, Bose Corp., Minnetonka, Minn.) adapted to be a tensilometer. See Feilzer et al., Dent. Mater. […] Briefly, two identical glass rods, 5 mm in diameter, were placed opposing one another and separated by 1 mm (C-factor=2.5). A displacement transducer (LVDT, Enduratec, 0.1 μm resolution, range ±1 mm) was mounted on one glass rod and was touching a plate attached to the opposing glass rod. The distance between the mounts on the opposing glass rods was about 9 mm (including the 1 mm separation between the rods). Samples placed between the glass rods were cured by irradiation (500 mW/cm^2), while under LVDT displacement control. Load-displacement data were collected at 200 Hz for 30 mins. […] From the load-displacement data, peak loads were obtained and normalized by the original area to obtain the polymerization stresses.

[3] = Mechanical properties measurement (3-point bend tests); format: physicochemical
Experimental: In this example, the elastic modulus, ultimate strength, and work of fracture were determined for the monomers of the present invention. […] The resin was injected into the mold and cured by irradiation (500 mW/cm^2) followed by storage in the dark for 4 hours and 24 hours before mechanical tests were conducted. Three point bending tests were conducted using an electromagnetic mechanical testing machine (Enduratec Model 3200) with a 20-mm span and at a crosshead displacement rate of 0.5mm/ min at room temperature (25° C.). Load-displacement data were collected at 100 Hz. […] Flexural ultimate strength was determined from the peak loads and work of fracture was determined from the area under the stress-strain curve.

[4] = Oxirane ring-opening (oxirane conversion) via FTIR; format: physicochemical; conditions: thin film, 10 min irradiation
Experimental: In this example, the oxirane ring-opening of monomers 1 (DEBAOM-1,5,7,11-TOSU) or 6 (DEBTMSPOM-1,5,7,11-TOSU) was investigated using FTIR. All FTIR spectra were acquired using a Perkin-Elmer BX II FTIR spectrophotometer. The identification of the location of the oxirane absorption band in the IR spectrum of Siloranes was achieved by methanolysis. A sample was dissolved in CH2Cl2 and exposed to CH30H in the presence of a catalytic amount of zinc tetrafluoroborate hydrate overnight. The mixture was evaporated onto a salt plate. An FTIR spectrum was acquired and compared to pre-exposure spectrum. There was a significant decrease in the oxirane absorption region at 882-886 cm^−1. This band was selected as the absorption to monitor for following the oxirane ring-opening reaction.
Analytical samples contained siloranes I, II, or SIL-MIX with and without 50 mol % of monomer 1 (DEBAOM-1,5,7,11-TOSU) or 6 (DEBTMSPOM-1,5,7,11-TOSU). A thin film was brushed onto a salt plate. Irradiation (10 minutes at 23 to 25° C. and R. H.=40-45%) was provided by a 3M XL2500 curing light positioned 1-cm above the sample surface. The light intensity was measured at 360 mW/cm^2 on the sample surface. The oxirane band absorption and an internal reference band absorption were assessed before and after irradiation. Oxirane conversion (alpha) was calculated according to equation (1) by Pan et al., Polym Int 2000, 49, 74. [formula] where subscripts 0 and t represent pre-irradiation and post-irradiation respectively.

[5] = 4-hour Post Cure, 10 mol % TOSU in SIL-MIX
[6] = 4-hour Post Cure, 25 mol % TOSU in SIL-MIX
[7] = 24-hour Post Cure, 10 mol % TOSU in SIL-MIX
[8] = 24-hour Post Cure, 25 mol % TOSU in SIL-MIX

## CCC1(COCCC[Si](C)(C)C)COC2(OC1)OCC(CC)(COCCC[Si](C)(C)C)CO2 (centres unmarked) [Monomer 6, 3,9-diethyl-3,9-bis(3-trimethylsilylpropyloxymethyl)-1,5,7,11-tetraoxaspiro[5.5]undecane]
[1]; 0 hour dark cure
  changes in 13C-NMR spectrum (oxaspirocyclic ring opening): No significant changes
[1]; 24 hour dark cure
  changes in 13C-NMR spectrum (oxaspirocyclic ring opening): consistent with oxaspirocyclic ring opening to form oligomeric carbonate species
[2]; 10 mol % TOSU
  polymerization stress values less than SIL-MIX alone: 80%
[2]; 25 mol % TOSU
  polymerization stress values less than SIL-MIX alone: 96%
[2]; SIL-MIX/6 75/25 mol/mol
  Photopolymerization stress: 0.3(0.1) N/mm^2
[2]; SIL-MIX/6 90/10 mol/mol
  Photopolymerization stress: 2.1(0.2) N/mm^2
[3]; 4-h Post Cure, 10 mol % TOSU in SIL-MIX
  Flexural elastic modulus: 1.61 (0.17)^a GPa
[3]; 4-h Post Cure, 25 mol % TOSU in SIL-MIX
  Flexural elastic modulus: 1.33 (0.18)^a GPa
[3]; [5]
  Flexural strength: 58.77 (19.08)^a,b MPa
  Work of Fracture: 2.67 (1.25)^a kJ/m^2
[3]; [6]
  Flexural strength: 30.90 (11.36)^a MPa
  Work of Fracture: 0.73 (0.38)^a kJ/m^2
[3]; 10 mol % TOSU
  24-hour modulus values as % of those for SIL-MIX alone: 77%
  24-hour strength values as % of those for SIL-MIX alone: 84%
  24-hour work of fracture values as % of those for SIL-MIX alone: 100%
[3]; 10 mol % TOSU, listed as TOSU
  24-hour strength values as % of those for SIL-MIX alone: 85%
[3]; 24-h Post Cure, 10 mol % TOSU in SIL-MIX
  Flexural elastic modulus: 2.41 (0.24)^b GPa
[3]; 24-h Post Cure, 25 mol % TOSU in SIL-MIX
  Flexural elastic modulus: 1.87 (0.06)^a GPa
[3]; [7]
  Flexural strength: 76.90 (10.19)^a,b MPa
  Work of Fracture: 3.07 (0.81)^a,b kJ/m^2
[3]; [8]
  Flexural strength: 56.63 (11.11)^a MPa
  Work of Fracture: 1.80 (0.87)^a kJ/m^2
[3]; 25 mol % TOSU
  24-hour modulus values as % of those for SIL-MIX alone: 60%
  24-hour strength values as % of those for SIL-MIX alone: 60%
  24-hour work of fracture values as % of those for SIL-MIX alone: 66%
[4]; comonomer 50 mol % in PH-SIL (I)
  Oxirane Conversion: 22%
[4]; comonomer 50 mol % in SIL-MIX
  Oxirane Conversion: 22%
[4]; comonomer 50 mol % in TET-SIL (II)
  Oxirane Conversion: 3%
other
  melting point: 44.27 °C
